Legend:
[1] = molecular target: T1, BRD4 bromodomain domain I [BRD4(1)] (Homo sapiens, UniProt O60885); assay: BRD4 bromodomain domain 1 inhibition assay (TR-FRET); type: binding; conditions: for inhibition at 10 µM: screening concentration 10 μM
T1 construct: BRD4 bromodomain domain I [BRD4(1)]; purchased Cayman Chemicals
Method in brief: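 0.5% DMSO, in triplicate, using Cayman BRD4(1) TR-FRET protocol with slight modification. 670/620 nm ratio normalized to 10 μM JQ1, with DMSO control set as 0% inhibition.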

[2] = tested on: human PBMCs; assay: Human PBMC TNF-α response to endotoxin (ELISA); type: cell-based; conditions: 0.1 μg/ml LPS 16 h, read-out: EC50 for the inhibition of the human PBMC TNF-α response to endotoxin, ave. ± S.D.
Method in brief: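 PBMCs at 2e6 cells/ml in RPMI 1640 with 10% charcoal-dextran-treated FBS were pre-treated 1 h at 37 °C with compound (4-point 1:5 dilution from 10 μM). Stimulation with 0.1 μg/ml E. coli 0111:B4 LPS for 16 h; TNF-α measured by ELISA (A450) in 25-fold diluted supernatant.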

[3] = molecular target: T2, recombinant human ERK5 catalytic domain (Homo sapiens, UniProt Q13164); assay: Recombinant human ERK5 radiometric (HotSpot) assay; type: biochemical; conditions: 10 μM ATP, 20 μM myelin basic protein substrate; read-out: rhERK5 IC50
T2 construct: Recombinant human ERK5 catalytic domain radiometric assays; purchased Reaction Biology, Corp (Malvern, Pa.), which ran the assay as a service
T2 sequence (Q13164 55-347 limits assumed): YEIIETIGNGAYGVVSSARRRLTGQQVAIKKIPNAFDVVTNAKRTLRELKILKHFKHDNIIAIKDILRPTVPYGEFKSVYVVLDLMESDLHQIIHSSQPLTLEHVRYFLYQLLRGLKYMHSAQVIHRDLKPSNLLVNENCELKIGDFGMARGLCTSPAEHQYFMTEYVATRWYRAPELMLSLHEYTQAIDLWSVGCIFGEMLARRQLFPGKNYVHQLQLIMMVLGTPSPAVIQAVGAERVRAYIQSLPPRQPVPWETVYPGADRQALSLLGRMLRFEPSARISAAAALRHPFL
Experimental: In this example, potency of the compounds in recombinant human ERK5 was assayed.
Recombinant human ERK5 catalytic domain radiometric assays were performed by Reaction Biology, Corp (Malvern, Pa.). The HotSpot radiometric assay is based on conventional filter-binding assays (Nature Biotechnology (2011) 29: 1039-1045). Compounds were tested at 20 μM down by ⅓ in a 10 point serial dilution series. Briefly, [γ-33P]-ATP was used as the tracer along with 10 μM cold ATP to label ERK5 in the presence of 20 μM myelin basic protein substrate.

CCO[C@H]1CC[C@H](Nc2cc3c(cn2)N(C)C(=O)c2ccccc2N3C)CC1 [Compound T110]
IC50 [1]: > 5000 nM | EC50 [2]: 2740 ± 1870 nM | IC50 [3]: 50 to 200 nM

CCOc1cc(C(C)N2CC[C@@H](O)C2)ccc1Nc1cc2c(cn1)N(C)C(=O)c1ccccc1N2C (stereo partly shown) [Compound T27]
inhibition at 10 µM [1]: > 85% | EC50 [2]: 370 nM | IC50 [3]: < 20 nM

CN1C(=O)c2ccccc2Oc2cc(N[C@H]3CC[C@H](O)CC3)ncc21 [Compound T117]
IC50 [1]: > 5000 nM | EC50 [2]: 2700 ± 2720 nM | IC50 [3]: > 200 nM

CCOc1cc(C(=O)N2CCN(C3CCN(C)CC3)CC2)ccc1Nc1cc2c(cn1)N(C)C(=O)c1cccc(F)c1O2 [Compound T103]
IC50 [1]: > 5000 nM | EC50 [2]: 1230 ± 1310 nM | IC50 [3]: 50 to 200 nM

CCOc1cc(C(C)N2CCCC2)ccc1Nc1cc2c(cn1)N(C)C(=O)c1ccccc1N2C (stereo not shown) [Compound T26]
inhibition at 10 µM [1]: > 85% | EC50 [2]: 410 nM | IC50 [3]: < 20 nM

CCOc1cc(C(=O)N2CCN(C3CCN(C)CC3)CC2)ccc1Nc1cc2c(cn1)N(C)C(=O)c1ccccc1S2 [Compound T99]
IC50 [1]: > 5000 nM | EC50 [2]: 3220 ± 2750 nM | IC50 [3]: 50 to 200 nM

CCOc1cc(C(=O)N2CCN(C3CCN(C)CC3)CC2)ccc1Nc1cc2c(cn1)N(C)C(=O)c1c(F)cccc1N2C [Compound T124]
IC50 [1]: < 2000 nM | EC50 [2]: 310 ± 220 nM | IC50 [3]: 20 to 50 nM

CN1C(=O)c2ccccc2N(C)c2cc(N[C@H]3CC[C@H](N4CCCS4(=O)=O)CC3)ncc21 [Compound T136]
IC50 [1]: > 5000 nM | EC50 [2]: 2030 ± 1910 nM | IC50 [3]: 50 to 200 nM

CCOc1cc(C(=O)N2CCN(C3CCN(C)CC3)CC2)ccc1Nc1cc2c(cn1)N(C)C(=O)c1cccc(C)c1O2 [Compound T106]
IC50 [1]: < 2000 nM | EC50 [2]: 270 ± 170 nM | IC50 [3]: 50 to 200 nM

CCOc1cc(C(=O)N2CCN(C3CCN(C)CC3)CC2)ccc1Nc1cc2c(cn1)N(C)C(=O)c1cccc(OC)c1O2 [Compound T105]
IC50 [1]: < 2000 nM | EC50 [2]: 430 ± 280 nM | IC50 [3]: 50 to 200 nM

CCOC1CCCC[C@H]1Nc1cc2c(cn1)N(C)C(=O)c1ccccc1N2C (stereo partly shown) [Compound T113]
IC50 [1]: > 5000 nM | EC50 [2]: 2950 ± 2170 nM | IC50 [3]: > 200 nM

CN1C(=O)c2cccc(F)c2Oc2cc(N[C@H]3CC[C@H](O)CC3)ncc21 [Compound T93]
IC50 [1]: > 5000 nM | EC50 [2]: 1720 ± 1340 nM | IC50 [3]: > 200 nM

CN1C(=O)c2cccc(Cl)c2N(C)c2cc(N[C@H]3CC[C@H](O)CC3)ncc21 [Compound T120]
IC50 [1]: > 5000 nM | EC50 [2]: 2390 ± 2110 nM | IC50 [3]: > 200 nM

C[C@H]1C[C@H](Nc2cc3c(cn2)N(C)C(=O)c2ccccc2N3C)CC[C@H]1O [Compound T137]
IC50 [1]: > 5000 nM | EC50 [2]: 1110 ± 990 nM | IC50 [3]: 50 to 200 nM

CN1C(=O)c2ccccc2N(C)c2cc(N[C@H]3CC[C@H](NS(N)(=O)=O)CC3)ncc21 [Compound T128]
IC50 [1]: 2000 to 5000 nM | EC50 [2]: 2510 ± 1470 nM | IC50 [3]: 50 to 200 nM

CN1C(=O)c2cccc(F)c2N(C)c2cc(N[C@H]3CC[C@H](O)CC3)ncc21 [Compound T118]
IC50 [1]: > 5000 nM | EC50 [2]: 2430 ± 1780 nM | IC50 [3]: > 200 nM

CN1C(=O)c2ccccc2Sc2cc(N[C@H]3CC[C@H](O)CC3)ncc21 [Compound T116]
IC50 [1]: > 5000 nM | EC50 [2]: 1660 ± 1530 nM | IC50 [3]: > 200 nM

CN1C(=O)c2ccccc2N(C)c2cc(Nc3ccc(C(=O)N4CCC[C@H](O)C4)cc3OCCF)ncc21 [Compound T32]
EC50 [2]: 870 nM | IC50 [3]: 50 to 200 nM

CCOc1cc(C(=O)N2CC[C@@H](N(C)CCO)C2)ccc1Nc1cc2c(cn1)N(C)C(=O)c1ccccc1N2C [Compound T55]
EC50 [2]: 840 nM | IC50 [3]: 20 to 50 nM

CCOc1cc(C(=O)N2CCC(N3CCN[C@@H](C)C3)CC2)ccc1Nc1cc2c(cn1)N(C)C(=O)c1ccccc1N2C [Compound T52]
EC50 [2]: 1080 nM | IC50 [3]: 20 to 50 nM

CCOc1cc(C(=O)N2CC[C@@H](C#N)C2)ccc1Nc1cc2c(cn1)N(C)C(=O)c1ccccc1N2C [Compound T21]
EC50 [2]: 1280 nM | IC50 [3]: < 20 nM

CCOc1cc(C(=O)N[C@H]2CC[C@H](O)CC2)ccc1Nc1cc2c(cn1)N(C)C(=O)c1ccccc1O2 [Compound T89]
IC50 [1]: > 5000 nM | EC50 [2]: 1720 ± 1510 nM | IC50 [3]: 50 to 200 nM

CCOc1cc(C(=O)N2CCC[C@H](N3CCCC3)C2)ccc1Nc1cc2c(cn1)N(C)C(=O)c1ccccc1N2C [Compound T53]
EC50 [2]: 890 nM | IC50 [3]: 50 to 200 nM

CCOc1cc(C(=O)N2CCN[C@H](C)C2)ccc1Nc1cc2c(cn1)N(C)C(=O)c1ccccc1N2C [Compound T29]
inhibition at 10 µM [1]: > 85% | EC50 [2]: 350 nM | IC50 [3]: < 20 nM

COc1cccc2c1N(C)c1cc(N[C@H]3CC[C@H](O)CC3)ncc1N(C)C2=O [Compound T122]
IC50 [1]: > 5000 nM | EC50 [2]: 3490 ± 3000 nM | IC50 [3]: 50 to 200 nM

CCOc1cc(C(=O)N2CCN(C3CCN(C)CC3)CC2)ccc1Nc1cc2c(cn1)N(C)C(=O)c1cccc(F)c1N2C [Compound T125]
IC50 [1]: 2000 to 5000 nM | EC50 [2]: 790 ± 200 nM | IC50 [3]: 50 to 200 nM

CCOc1cc(C(=O)N2CC[C@@H](N3CCOCC3)C2)ccc1Nc1cc2c(cn1)N(C)C(=O)c1ccccc1N2C [Compound T19]
EC50 [2]: 690 nM | IC50 [3]: 50 to 200 nM

CCOc1cc(C(=O)N2CC[C@@H](N3CCNCC3)C2)ccc1Nc1cc2c(cn1)N(C)C(=O)c1ccccc1N2C [Compound T58]
EC50 [2]: 1040 nM | IC50 [3]: 20 to 50 nM

CCOc1cc(C(=O)N2CCN(C3CCN(C)CC3)CC2)ccc1Nc1cc2c(cn1)N(C)C(=O)c1cccc(Cl)c1O2 [Compound T104]
IC50 [1]: 2000 to 5000 nM | EC50 [2]: 510 ± 240 nM | IC50 [3]: 50 to 200 nM

CCOc1cc(C(=O)N2CCC[C@@H](N3CCCC3)C2)ccc1Nc1cc2c(cn1)N(C)C(=O)c1ccccc1N2C [Compound T57]
EC50 [2]: 650 nM | IC50 [3]: 50 to 200 nM

CCOc1cc(C(=O)N2CCN(C3CCN(C)CC3)CC2)ccc1Nc1cc2c(cn1)N(C)C(=O)c1cccc(Cl)c1N2C [Compound T126]
IC50 [1]: > 5000 nM | EC50 [2]: 970 ± 830 nM | IC50 [3]: 50 to 200 nM

CCOc1cc(C(=O)N2CCN[C@@H](C)C2)ccc1Nc1cc2c(cn1)N(C)C(=O)c1ccccc1N2C [Compound T25]
inhibition at 10 µM [1]: > 85% | EC50 [2]: 480 nM | IC50 [3]: < 20 nM

CN1C(=O)c2ccccc2N(C)c2cc(Nc3ccc(C(=O)N4CCCNCC4)cc3OCCF)ncc21 [Compound T33]
EC50 [2]: 670 nM | IC50 [3]: < 20 nM

CN1C(=O)c2ccccc2N(C)c2cc(N[C@H]3CC[C@@H](O)CC3)ncc21 [Compound T114]
IC50 [1]: > 5000 nM | EC50 [2]: 3070 ± 3350 nM | IC50 [3]: > 200 nM

CN1C(=O)c2ccccc2N(C)c2cc(N[C@H]3CC[C@H](NS(=O)(=O)C4CC4)CC3)ncc21 [Compound T129]
IC50 [1]: 2000 to 5000 nM | EC50 [2]: 1790 ± 1440 nM | IC50 [3]: 50 to 200 nM

CCOc1cc(C(=O)N2CCC[C@H](OC(=O)CN(C)C)C2)ccc1Nc1cc2c(cn1)N(C)C(=O)c1ccccc1N2C [Compound T44]
EC50 [2]: 650 nM | IC50 [3]: 20 to 50 nM

CN1C(=O)c2cccc(Cl)c2Oc2cc(N[C@H]3CC[C@H](O)CC3)ncc21 [Compound T94]
IC50 [1]: > 5000 nM | EC50 [2]: 1170 ± 1120 nM | IC50 [3]: > 200 nM

CCOc1cc(C(=O)N2CCC(N3CCOCC3)CC2)ccc1Nc1cc2c(cn1)N(C)C(=O)c1ccccc1N2C [Compound T12]
EC50 [2]: 680 nM | IC50 [3]: 20 to 50 nM

CN1C(=O)c2c(F)cccc2N(C)c2cc(N[C@H]3CC[C@H](O)CC3)ncc21 [Compound T119]
IC50 [1]: < 2000 nM | EC50 [2]: 980 ± 930 nM | IC50 [3]: 50 to 200 nM

Cc1cccc2c1Oc1cc(N[C@H]3CC[C@H](O)CC3)ncc1N(C)C2=O [Compound T96]
IC50 [1]: 2000 to 5000 nM | EC50 [2]: 1100 ± 860 nM | IC50 [3]: > 200 nM

CCOc1cc(C(=O)N2CCN(C3CCN(C)CC3)CC2)ccc1Nc1cc2c(cn1)N(C)C(=O)c1c(F)ccc(F)c1O2 [Compound T107]
IC50 [1]: < 2000 nM | EC50 [2]: 300 ± 250 nM | IC50 [3]: 20 to 50 nM

Source: patent publication US20170008888A1 (KYORIN PHARMACEUTICAL CO., LTD., priority 2014, published 2017)
